Reference: patent publication US4039652A, “Column method of immunoassay employing an immobilized binding partner” (Miles Laboratories, Inc., priority 1973, dated 1977)
One block for each molecule: values may come before it.

Key:
digitoxin antibodies = experiment: Column radioimmunoassay for digitoxin, Example 4; type: binding, rabbit; details: control = 100%, PBS buffer with 0.1% Tween 20
Procedure: 90 mg of digitoxin was suspended in 4 ml of ethanol at ambient temperature. 4 ml of a 0.1M sodium metaperiodate solution was added dropwise. The resulting solution was stirred for 25 minutes and 4 drops of 0.1M ethylene glycol was added. This solution was slowly added to 130 mg of bovine serum albumin in 4 ml of water previously adjusted to pH 9.5 with 5% K2 CO3. The pH was maintained between 9.0 and 9.5 with 5% K2 CO3. After 45 minutes, 0.05 g of NaBH4 in 4 ml of water was added. After 3 hours the pH was lowered to 6.5 with 1M formic acid. After 1 hour, the pH was raised to pH 8.5 with 1M NH4 OH and the mixture was dialyzed against distilled water overnight at 4° C. The next day, the suspension was centrifuged for 2 hours at 1500 rpm. The supernatant was concentrated to 6 ml in an Amicon U-2 ultrafilter, available from Amicon Corporation, Lexington, Massachusetts, and lyophilized.
The same procedure as described in Example 3 was followed except that the digitoxin-bovine serum albumin conjugate was prepared according to the method described in procedure a. above and this conjugate was dissolved in a few drops of dilute NaOH before being mixed with the PBS buffer.
The same procedure as described in Example 3 was followed.
The same procedure as described in Example 3 was followed except that the columns were equilibrated with 10 ml of PBS buffer containing 0.1% Tween 20, a detergent available from the Atlas Powder Company, Wilmington, Delaware, and that PBS buffer containing 0.1% Tween 20 was used in place of PBS buffer. The standard digitoxin solutions were prepared to the following concentrations: 5 ng/ml, 10 ng/ml, 20 ng/ml, 30 ng/ml, 40 ng/ml, and 50 ng/ml.
The results were as follows (with % bound being calculated based on setting 100% bound as the % bound of the control): […]

digoxin antibodies = experiment: Column radioimmunoassay for digoxin (competition with 3-0-succinyl digoxigenin tyrosine 125I); type: binding, rabbit; details: control = 100%, 30 + 30 minutes, pH 7.0
Procedure: 400 mg of digoxin was suspended in 20 ml of absolute ethanol at ambient temperature. 0.45 g of sodium metaperiodate in 20 ml of water was added dropwise with stirring. After 25 minutes, 0.5 ml of 1M ethylene glycol was added. Five minutes later, this reaction mixture was added dropwise with stirring to 560 mg of bovine serum albumin in 20 ml of water previously adjusted to pH 9.5 with 5% K2 CO3. The pH was maintained between 9.0 and 9.5 by the dropwise addition of 5% K2 CO3. After 45 minutes 0.3 g of sodium borohydride in 20 ml of water was added. Three hours later, the pH was lowered to 6.5 with 1M formic acid. After 1 hour, the pH was raised to 8.5 with 1M NH4 OH. The entire reaction mixture was then dialyzed against distilled water overnight at 4° C. The next day, the pH was lowered to 4.5 with 0.1N HCl. After 1 hour at ambient temperature and 3 hours at 4° C., the suspension was centrifuged for 1 hour at 1500 rpm. The precipitate was dissolved in 21 ml of 0.15M NaHCO3, dialyzed against distilled water for 4 days, and lyophilized.
Rabbits were injected with inocula consisting of a 50/50 mixture of 4 mg/ml digoxin-bovine serum albumin conjugate, prepared according to the method described in procedure a., in 0.0075M phosphate-0.15M NaCl buffer (pH 7.0) and Freund's complete adjuvant. Four sites along the neck and back of the animals and each footpad were injected with 0.1 ml of this mixture. This procedure was repeated on the first and third weeks. Also, every second week the rabbits were injected intramuscularly with 0.4 ml of the inoculum. At one month intervals, ear bleedings were taken.
One (1.0) gram of CNBr-activated Sepharose 4B available from Pharmacia AB, Uppsala, Sweden, was added to 200 ml of 0.001N HCl, mixed for 15 minutes, and filtered under vacuum. The swollen Sepharose 4B was then washed with 200 ml of PBS buffer (0.0075 M phosphate-0.15M NaCl, pH 7.0) and resuspended in 3.0 ml of PBS buffer. Whole, unfractionated, diluted antiserum from procedure b. was added with stirring. The reaction mixture was stirred for 2 hours at ambient temperature and then for 22 hours at 4° C. The antibody-coupled Sepharose 4B suspension was washed with 400 ml of PBS buffer and an equal volume of PBS buffer containing 0.1% NaN3 was added. This mixture was in turn diluted with the addition of a 50% suspension of Sepharose 4B in distilled water to give a final dilution of antibody-coupled Sepharose 4B which would bind about half of the radioactive labeled antigen following procedure d. below where the fluid sample tested contained no digoxin. Two (2.0) ml volumes of the diluted antibody-coupled Sepharose 4B were added to 3 ml plastic Stylex syringes, available from Pharmaseal Laboratories, Glendale, California, fitted with polyethylene support disks to give 1 ml Sepharose 4B columns.
The columns were then equilibrated with 10 ml volumes of PBS buffer and allowed to drain. Standard digoxin solutions were prepared for the following digoxin concentrations: 0.5 ng/ml, 1.0 ng/ml, 2.0 ng/ml, 3.0 ng/ml, 4.0 ng/ml, and 5.0 ng/ml. A control containing no digoxin and the six digoxin standards were added to columns prepared according to procedure c. above in 0.5 ml volumes and allowed to incubate for 30 minutes. The reference sample containing 3-0-succinyl digoxigenin tyrosine ^125 I solution was then added to each column in 0.5 ml portions and allowed to incubate for 30 minutes. The columns were then counted using a Gammacord gamma counter. The columns were washed three times with 3.0 ml volumes of PBS buffer and counted again. The results were as follows (with % bound being calculated based on setting 100% as the % bound of the control): […]

HPL antibodies [1] = experiment: Column saturation radioimmunoassay for human placental lactogen (competition with 125I-HPL), Example 2; type: binding, rabbit; details: control = 100%, 30 minutes, pH 8.0
Procedure: Rabbits were injected with priming inocula consisting of a 50/50 mixture of 2.8 mg/ml HPL antigen in physiological saline solution (0.9%) and Freund's complete adjuvant. Each footpad was injected with 0.2 ml of this mixture. On days 21, 23, 56, 58, 91, 93, 126 and 128, 0.5 ml of booster inocula per day was injected intravenously into the animals. The booster inocula consisted of 0.7 mg/ml HPL antigen in physiological saline solution. Test bleedings were made on days 36 and 70, and on day 140 the animals were exsanguinated
The columns were prepared as in Example 1 using whole unfractionated HPL antiserum from procedure a. above.
The procedure as in Example 1c. was followed except that the borate-human serum albumin buffer was prepared to pH 8.0, the incubation times were 30 minutes, and the reference sample contained HPL labeled with ^125 I. […] The results were as follows (with % bound being calculated based on setting 100% bound as the % bound of the control): […]

HPL antibodies [2] = experiment: Column enzyme immunoassay for HPL with peroxidase labeled HPL, Example 6; type: binding; details: for % Color Bound: control = 100; for OD460: optical density of washings at 460 nm (control 1.2)
Procedure: HPL was labeled with peroxidase according to the method described in Immunochemistry 6: 43(1969) with the following modifications: 10 mg (HPL and 10 mg horseradish peroxidase were dissolved in 1.4 ml of 0.05M carbonate buffer (pH 9), 0.05 ml of 3% glutaraldehyde solution was added to the mixture. The mixture was then rotated at ambient temperature for 90 minutes and then dialyzed against 128 ml of 0.1M borate buffer (pH 8) with several buffer changes.
The same procedure as in Example 1b was followed.
The packed columns were equilibrated by adding 20 ml portions of a borate buffer (pH 9) to the columns and allowing them to drain. The borate buffer was prepared as in Example 1c. HPL standards were prepared for the following HPL concentrations 1000 ng/ml and 62 ng/ml. A control containing no HPL and the two HPL standards were added to columns, prepared according to procedure b above in 0.5 ml volumes and allowed to incubate for 25 minutes. The reference sample containing peroxidase labeled HPL, prepared as in procedure a. above, was then added to each column in 0.5 ml portions and allowed to incubate for 25 minutes. The columns were washed with 10 ml volumes of 0.1M borate buffer (pH 8) followed by 3 ml volumes of 0.1M phosphate buffer (pH 6). A substrate-indicator solution, prepared by mixing 0.28 ml of 0.03% H2 O2 in water, 0.1 ml of 0.25% 3,3'-dimethylbenzidine, and 0.12 ml of 0.1M phosphate buffer (pH 6), was added to each column and allowed to incubate for 10 minutes. The columns were each washed with a 3 ml of volume of 0.1N HCl and the optical density (OD) of the washings were read at 460 nm with the following results: […]

Molecule: C[C@H]1O[C@@H](O[C@H]2[C@@H](O)C[C@H](O[C@H]3[C@@H](O)C[C@H](O[C@H]4CC[C@@]5(C)[C@H](CC[C@@H]6[C@@H]5CC[C@]5(C)[C@@H](C7=CC(=O)OC7)CC[C@]65O)C4)O[C@@H]3C)O[C@@H]2C)C[C@H](O)[C@@H]1O [Digitoxin, digitoxin]
% Bound (digitoxin antibodies; Digitoxin concentration 5.0 ng/ml): 83%
% Bound (digitoxin antibodies; Digitoxin concentration 10.0 ng/ml): 73.5%
% Bound (digitoxin antibodies; Digitoxin concentration 20.0 ng/ml): 64%
% Bound (digitoxin antibodies; Digitoxin concentration 30.0 ng/ml): 56.6%
% Bound (digitoxin antibodies; Digitoxin concentration 40.0 ng/ml): 50.2%
% Bound (digitoxin antibodies; Digitoxin concentration 50.0 ng/ml): 42%

Molecule: C[C@H]1O[C@@H](O[C@H]2[C@@H](O)C[C@H](O[C@H]3[C@@H](O)C[C@H](O[C@H]4CC[C@@]5(C)[C@H](CC[C@@H]6[C@@H]5C[C@@H](O)[C@]5(C)[C@@H](C7=CC(=O)OC7)CC[C@]65O)C4)O[C@@H]3C)O[C@@H]2C)C[C@H](O)[C@@H]1O [Digoxin, digoxin]
% Bound (digoxin antibodies; Digoxin concentration 0.5 ng/ml): 92%
% Bound (digoxin antibodies; Digoxin concentration 1.0 ng/ml): 79.5%
% Bound (digoxin antibodies; Digoxin concentration 2.0 ng/ml): 60.2%
% Bound (digoxin antibodies; Digoxin concentration 3.0 ng/ml): 49.0%
% Bound (digoxin antibodies; Digoxin concentration 4.0 ng/ml): 41.3%
% Bound (digoxin antibodies; Digoxin concentration 5.0 ng/ml): 34.7%

% Color Bound (HPL antibodies [2]; HPL concentration 62 ng/ml): 63%
OD460 (HPL antibodies [2]; HPL concentration 62 ng/ml): 0.96
% Color Bound (HPL antibodies [2]; HPL concentration 1000 ng/ml): 35%
OD460 (HPL antibodies [2]; HPL concentration 1000 ng/ml): 0.78
B1: HPL: human placental lactogen (HPL) (protein, UniProt P0DML2 27-217, looked up)
Chorionic somatomammotropin …: VQTVPLSRLFDHAMLQAHRAHQLAIDTYQEFEETYIPKDQKYSFLHDSQTSFCFSDSIPTPSNMEETQQKSNLELLRISLLLIESWLEPVRFLRSMFANNLVYDTSDSDDYHLLKDLEEGIQTLMGRLEDGSRRTGQILKQTYSKFDTNSHNHDALLKNYGLLYCFRKDMDKVETFLRMVQCRSVEGSCGF
% Bound (labeled HPL) (HPL antibodies [1]; HPL concentration 1 ng/ml): 98%
% Bound (labeled HPL) (HPL antibodies [1]; HPL concentration 15 ng/ml): 70%
% Bound (labeled HPL) (HPL antibodies [1]; HPL concentration 62 ng/ml): 42%
% Bound (labeled HPL) (HPL antibodies [1]; HPL concentration 1000 ng/ml): 9%
